Measurements: ChEMBL document CHEMBL1201862, “PubChem BioAssay data set” (2004)
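Tested at 5 concentrations; 48 h exposure; 96-well plates; endpoints linearly interpolated, else capped at highest concentration. GI50 marks 50% less growth.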 The source made the active and inactive calls. Rule as the data show it: active = GI50 up to about 1.1 µM and inactive = higher.

How the values were obtained:
Assay in all cases: growth of human tumour cells (NCI), 48 h
[1] = tested on: HCT-116
[2] = tested on: HT-29
[3] = tested on: OVCAR-4
[4] = tested on: OVCAR-8
[5] = tested on: COLO 205
[6] = tested on: MCF7
[7] = tested on: OVCAR-5
[8] = tested on: SN12C
[9] = tested on: T47D
[10] = tested on: MDA-MB-435
[11] = tested on: PC-3
[12] = tested on: ACHN
[13] = tested on: HOP-62
[14] = tested on: SK-MEL-5
[15] = tested on: SNB-75
[16] = tested on: NCI-H23
[17] = tested on: RXF 393
[18] = tested on: HCT-15
[19] = tested on: M14
[20] = tested on: BT-549
[21] = tested on: HL-60
[22] = tested on: Hs-578T
[23] = tested on: SR
[24] = tested on: SW-620
[25] = tested on: NCI-H522
[26] = tested on: DU-145
[27] = tested on: K562
[28] = tested on: NCI/ADR-RES
[29] = tested on: UACC-257
[30] = tested on: A549
[31] = tested on: SK-OV-3
[32] = tested on: MDA-N
[33] = tested on: NCI-H226
[34] = tested on: 786-0
[35] = tested on: IGROV-1
[36] = tested on: SF-268
[37] = tested on: Malme-3M
[38] = tested on: A498
[39] = tested on: SK-MEL-2
[40] = tested on: SNB-19
[41] = tested on: OVCAR-3
[42] = tested on: KM12
[43] = tested on: NCI-H460
[44] = tested on: U-251
[45] = tested on: RPMI-8226
[46] = tested on: LOX IMVI
[47] = tested on: TK-10
[48] = tested on: EKVX
[49] = tested on: CAKI-1
[50] = tested on: SF-295
[51] = tested on: UO-31
[52] = tested on: HCC 2998
[53] = tested on: UACC-62
[54] = tested on: CCRF-CEM
[55] = tested on: SK-MEL-28
[56] = tested on: MDA-MB-231
[57] = tested on: HOP-92
[58] = tested on: SF-539
[59] = tested on: MOLT-4

## COc1ccc(N2CCN(Cc3c(C(C)=O)[n+]([O-])c4ccccc4[n+]3[O-])CC2)cc1
[1]
  GI50: 49.5 µM (inactive)
[2]
  GI50: 45.6 µM (inactive)
[3]
  GI50: 38.3 µM (inactive)
[4]
  GI50: 28.7 µM (inactive)
[5]
  GI50: 60.8 µM (inactive)
[6]
  GI50: 24.2 µM (inactive)
[7]
  GI50: 68.2 µM (inactive)
[8]
  GI50: 41.2 µM (inactive)
[9]
  GI50: 57.3 µM (inactive)
[10]
  GI50: 32.6 µM (inactive)
[11]
  GI50: 87.5 µM (inactive)
[12]
  GI50: 22 µM (inactive)
[13]
  GI50: 16.4 µM (inactive)
[14]
  GI50: 37.1 µM (inactive)
[15]
  GI50: 15.6 µM (inactive)
[16]
  GI50: 10.6 µM (inactive)
[17]
  GI50: 17 µM (inactive)
[18]
  GI50: 47.1 µM
[19]
  GI50: 45.5 µM (inactive)
[20]
  GI50: 17 µM (inactive)
[21]
  GI50: > 100 µM (inactive)
[22]
  GI50: 25.2 µM (inactive)
[23]
  GI50: 37.8 µM (inactive)
[24]
  GI50: 42.2 µM (inactive)
[25]
  GI50: 36.1 µM (inactive)
[26]
  GI50: > 100 µM (inactive)
[27]
  GI50: > 100 µM (inactive)
[28]
  GI50: 24.5 µM (inactive)
[29]
  GI50: 29.8 µM (inactive)
[30]
  GI50: 40.3 µM (inactive)
[31]
  GI50: 32.3 µM (inactive)
[32]
  GI50: 36.4 µM (inactive)
[33]
  GI50: 29 µM (inactive)
[34]
  GI50: 53.5 µM (inactive)
[35]
  GI50: 32.4 µM (inactive)
[36]
  GI50: 21.1 µM (inactive)
[37]
  GI50: 12 µM (inactive)
[38]
  GI50: 44.7 µM (inactive)
[39]
  GI50: 54.2 µM (inactive)
[40]
  GI50: 35.3 µM (inactive)
[41]
  GI50: > 100 µM (inactive)
[42]
  GI50: 48.1 µM (inactive)
[43]
  GI50: 87.5 µM (inactive)
[44]
  GI50: 45 µM (inactive)
[45]
  GI50: > 100 µM (inactive)
[46]
  GI50: 56.4 µM (inactive)
[47]
  GI50: 9.29 µM (inactive)
[48]
  GI50: 75.3 µM (inactive)
[49]
  GI50: > 100 µM (inactive)
[50]
  GI50: 51.8 µM (inactive)
[51]
  GI50: 64.6 µM (inactive)
[52]
  GI50: > 100 µM (inactive)
[53]
  GI50: 71.6 µM (inactive)
[54]
  GI50: 61.1 µM (inactive)
[55]
  GI50: 43.3 µM (inactive)
[56]
  GI50: 31.2 µM (inactive)
[57]
  GI50: 32.5 µM (inactive)

## C=CCSC1=N/C(=C\c2ccco2)C(=O)N1CC=C
[1]
  GI50: 52.1 µM (inactive)
[2]
  GI50: 68.4 µM (inactive)
[3]
  GI50: 38 µM (inactive)
[4]
  GI50: > 100 µM (inactive)
[58]
  GI50: > 100 µM (inactive)
[5]
  GI50: 83.6 µM (inactive)
[6]
  GI50: 16.6 µM (inactive)
[7]
  GI50: > 100 µM (inactive)
[8]
  GI50: > 100 µM (inactive)
[9]
  GI50: 28.2 µM (inactive)
[10]
  GI50: 52.5 µM (inactive)
[11]
  GI50: 46.7 µM (inactive)
[12]
  GI50: 34.1 µM (inactive)
[13]
  GI50: > 100 µM (inactive)
[14]
  GI50: 37.5 µM (inactive)
[16]
  GI50: 66.5 µM (inactive)
[17]
  GI50: 22.5 µM (inactive)
[18]
  GI50: 57.9 µM
[19]
  GI50: > 100 µM (inactive)
[20]
  GI50: 46.1 µM (inactive)
[21]
  GI50: 26.8 µM (inactive)
[22]
  GI50: > 100 µM (inactive)
[23]
  GI50: 25.4 µM (inactive)
[24]
  GI50: > 100 µM (inactive)
[25]
  GI50: 43.9 µM (inactive)
[26]
  GI50: 90.4 µM (inactive)
[27]
  GI50: 35.2 µM (inactive)
[28]
  GI50: 85.7 µM (inactive)
[29]
  GI50: 77.6 µM (inactive)
[30]
  GI50: 79.1 µM (inactive)
[31]
  GI50: > 100 µM (inactive)
[32]
  GI50: 41.8 µM (inactive)
[33]
  GI50: 34.4 µM (inactive)
[34]
  GI50: > 100 µM (inactive)
[35]
  GI50: > 100 µM (inactive)
[36]
  GI50: > 100 µM (inactive)
[37]
  GI50: > 100 µM (inactive)
[38]
  GI50: 27.2 µM (inactive)
[39]
  GI50: > 100 µM (inactive)
[40]
  GI50: > 100 µM (inactive)
[41]
  GI50: 95.3 µM (inactive)
[42]
  GI50: 64.4 µM (inactive)
[43]
  GI50: > 100 µM (inactive)
[44]
  GI50: > 100 µM (inactive)
[59]
  GI50: 25.9 µM (inactive)
[45]
  GI50: 28.2 µM (inactive)
[46]
  GI50: 69.3 µM (inactive)
[47]
  GI50: > 100 µM (inactive)
[48]
  GI50: 40.3 µM (inactive)
[49]
  GI50: 70.6 µM (inactive)
[50]
  GI50: 71.1 µM (inactive)
[51]
  GI50: 53 µM (inactive)
[52]
  GI50: > 100 µM (inactive)
[53]
  GI50: 39.4 µM (inactive)
[54]
  GI50: 42.6 µM (inactive)
[55]
  GI50: 72.4 µM (inactive)
[56]
  GI50: 98.9 µM (inactive)
[57]
  GI50: 55.2 µM (inactive)
